Columns and labels:
[1] = Plasma leuprolide pharmacokinetics after IV, SQ and intranasal (IN) administration, five-way crossover volunteer trial, ELISA; set-up: Absolute bioavailability, % of IV: dose or concentration left out as unconfirmed; details: human, in vivo; for bioavailability / AUC / Cmax: female
From the text: In the following example, the inventors sought to compare the intranasal (“IN”) administration of leuprolide using the methods and compositions of the invention with prior art methods of administration (subcutaneous (“SQ”) and intravenous (“IV”)).

[2] = human, in vivo
Method: The design of the experiment was a five-way, crossover, randomized, partially double-blind, volunteer trial. Women were given leuprolide 1 mg IV and SQ, and IN as novel formulation at 1 mg (one spray), 2 mg (one spray) and 6 mg (three sprays), in random order. There was one dosing regimen on each of five separate days, with each day separated by at least two washout days. Blood for leuprolide measurement was collected via indwelling catheter at baseline and on eighteen occasions, up to twenty four hours after dosing. Plasma was separated and the leuprolide concentrations determined by enzyme linked immunosorbant assays (ELISA). Throughout the study subjects were monitored for adverse events and given nasal examinations.

`CC(=O)O.CCNC(=O)[C@@H]1CCCN1C(=O)[C@H](CCCNC(=N)N)NC(=O)[C@H](CC(C)C)NC(=O)[C@@H](CC(C)C)NC(=O)[C@H](Cc1ccc(O)cc1)NC(=O)[C@H](CO)NC(=O)[C@H](Cc1c[nH]c2ccccc12)NC(=O)[C@H](Cc1c[nH]cn1)NC(=O)[C@@H]1CCC(=O)N1` [leuprolide, 5-oxo-L-prolyl-L-histidyl-L-tryptophyl-L-seryl-L-tyrosyl-D-leucyl-L-leucyl-L-arginyl-N-ethyl-L-prolinamide acetate salt] showed a bioavailability [1] of 95 ± 17%, an AUC ([1]; inhaled or intranasal, 1 mg) of 15 ± 8 ng·h/mL and a Cmax ([1]; inhaled or intranasal, 1 mg) of 5 ± 3 ng/mL. For the same compound, the bioavailability ([1]; inhaled or intranasal, 1 mg) was 13 ± 7%, the AUC ([1]; inhaled or intranasal, 2 mg) was 31 ± 16 ng·h/mL and the Cmax ([1]; inhaled or intranasal, 2 mg) was 11 ± 6 ng/mL. For the same compound, the bioavailability ([1]; inhaled or intranasal, 2 mg) was 14 ± 7%, the AUC ([1]; inhaled or intranasal, 6 mg) was 56 ± 28 ng·h/mL and the Cmax ([1]; inhaled or intranasal, 6 mg) was 22 ± 11 ng/mL. The AUC ([1]; iv, 1 mg) was 120 ± 25 ng·h/mL, the Cmax ([1]; iv, 1 mg) was 85 ± 33 ng/mL and the AUC ([1]; sc, 1 mg) was 111 ± 21 ng·h/mL. For the same compound, the Cmax ([1]; sc, 1 mg) was 35 ± 8 ng/mL, the “Absolute bioavailability, % of IV” value [1] was 8 ± 3 % of IV and the “Absolute bioavailability, % of IV” value ([1]; iv) was 100 % of IV. The Adverse events noted [2] was “rhinorrhea and altered taste sensation” and the Serious adverse events [2] was “No serious adverse events were reported”.
